In patent US12630498B2 (Genzyme Corporation, priority 2019, dated 2026):

Experiments:
[1] = molecular target: T1, CFTR-mediated transepithelial chloride transport in primary human bronchial epithelial cells from a ΔF508 homozygous CF donor (Homo sapiens, UniProt P13569, DEL508-508); test: TECC24 recording of CFTR-mediated transepithelial chloride transport in CF-HBE cells (AUC fold over DMSO); type: cell-based; details: test agent 10 μM, 48 hours incubation, AUC of forskolin-stimulated IEQ relative to DMSO
T1 construct: Primary human bronchial epithelial cells from a ΔF508 homozygous CF donor; host or cells: primary CF-HBE cells, ΔF508 homozygous donor
T1 sequence (P13569 with tags, fused parts or gaps DEL508-508): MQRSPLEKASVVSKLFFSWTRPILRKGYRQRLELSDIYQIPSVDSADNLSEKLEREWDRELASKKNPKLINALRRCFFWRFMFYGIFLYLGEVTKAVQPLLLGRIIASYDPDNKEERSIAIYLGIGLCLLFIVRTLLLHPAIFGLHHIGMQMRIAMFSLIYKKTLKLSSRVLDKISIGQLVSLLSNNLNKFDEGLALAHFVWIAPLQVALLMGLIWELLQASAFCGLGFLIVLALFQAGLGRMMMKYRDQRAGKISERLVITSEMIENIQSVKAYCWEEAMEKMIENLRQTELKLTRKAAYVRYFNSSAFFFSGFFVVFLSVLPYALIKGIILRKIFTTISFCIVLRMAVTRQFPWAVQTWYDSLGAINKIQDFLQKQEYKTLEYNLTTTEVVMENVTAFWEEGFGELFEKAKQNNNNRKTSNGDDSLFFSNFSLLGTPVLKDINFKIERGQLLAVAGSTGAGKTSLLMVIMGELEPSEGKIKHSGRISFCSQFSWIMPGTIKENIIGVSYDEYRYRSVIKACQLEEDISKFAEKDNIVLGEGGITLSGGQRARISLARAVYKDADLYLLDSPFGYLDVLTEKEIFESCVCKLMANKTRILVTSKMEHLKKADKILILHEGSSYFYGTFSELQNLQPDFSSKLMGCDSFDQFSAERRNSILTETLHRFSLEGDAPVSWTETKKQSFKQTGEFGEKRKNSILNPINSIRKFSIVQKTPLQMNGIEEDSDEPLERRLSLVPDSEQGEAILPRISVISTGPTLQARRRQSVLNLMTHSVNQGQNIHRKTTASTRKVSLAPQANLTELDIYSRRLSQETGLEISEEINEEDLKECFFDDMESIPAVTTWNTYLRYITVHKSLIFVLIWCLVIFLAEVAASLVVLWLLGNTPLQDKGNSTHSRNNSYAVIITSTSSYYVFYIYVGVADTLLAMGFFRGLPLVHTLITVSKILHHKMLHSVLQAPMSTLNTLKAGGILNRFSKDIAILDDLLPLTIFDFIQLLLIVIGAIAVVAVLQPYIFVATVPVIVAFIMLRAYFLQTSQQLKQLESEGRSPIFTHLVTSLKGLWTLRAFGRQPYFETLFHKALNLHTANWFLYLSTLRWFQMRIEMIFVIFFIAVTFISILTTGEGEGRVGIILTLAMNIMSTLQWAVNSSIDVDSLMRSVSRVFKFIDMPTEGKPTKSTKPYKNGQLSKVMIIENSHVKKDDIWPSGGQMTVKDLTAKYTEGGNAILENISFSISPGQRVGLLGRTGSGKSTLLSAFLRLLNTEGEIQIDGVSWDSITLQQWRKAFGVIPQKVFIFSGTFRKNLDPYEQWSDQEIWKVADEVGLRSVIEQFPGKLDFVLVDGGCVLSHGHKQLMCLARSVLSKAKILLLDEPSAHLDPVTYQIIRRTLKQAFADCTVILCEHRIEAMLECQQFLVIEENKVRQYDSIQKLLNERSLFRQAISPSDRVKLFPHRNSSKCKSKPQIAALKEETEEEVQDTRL
Summary of the method: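 Primary ΔF508/ΔF508 CF-HBE cells on inserts exposed to test agent in IL-13-containing medium for 48 h at 36.5 °C. Current-clamp VT/TEER recording in pH 7.4 HEPES saline with benzamil 10 μM, forskolin 10 μM, then CFTRinh-172 20 μM. AUC of equivalent Cl⁻ current between forskolin and inhibitor, expressed as ratio over vehicle.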

[2] = molecular target: T2, human Cystic Fibrosis Transmembrane Conductance Regulator (CFTR) harboring the ΔF508 mutation (Homo sapiens, UniProt P13569, DEL508-508); test: H441 cell ΔF508-CFTR-HRP cell surface assay (Emax and EC50); type: cell-based; details: for Emax: NCI-H441, NA = Not active
T2 construct: expressed in transfected cells; host or cells: H441 carcinoma line (G418-selected)
T2 sequence (P13569 with tags, fused parts or gaps DEL508-508): as above
Summary of the method: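 H441 and 41o- bronchial epithelial cells expressing ΔF508-CFTR with an extracellular-loop-4 HRP tag were treated with a 15-point compound series (24.5–0.001 μM) for two nights, H441 at 27° C, 41o- at 37° C with 0.0005 mg/ml doxycycline. Surface HRP luminescence read; % of maximum VX809 signal and EC50 derived.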

SMILES: CCC(C)(C)[C@H](NC(=O)c1ccc2ccc(C)cc2c1OCc1ccc(C(F)(F)F)cc1)C(=O)O [Example 288, (S)-3,3-dimethyl-2-(7-methyl-1-((4-(trifluoromethyl)benzyl)oxy)-2-naphthamido)pentanoic Acid]
- TECC24 AUC fold over DMSO @10 μM [1]: A (“A” refers to AUC @10 uM >6)
- EC50 [2]: 100 nM
- Emax [2]: 404%

SMILES: CC(C)(C)[C@H](NC(=O)c1ccc2ccc(Br)cc2c1OCc1ccc(C(F)(F)F)cc1)C(=O)O [Example 256, (2S)-2-[[7-bromo-1-[[4-(trifluoromethyl)phenyl]methoxy]naphthalene-2-carbonyl]amino]-3,3-dimethyl-butanoic Acid]
- TECC24 AUC fold over DMSO @10 μM [1]: A (“A” refers to AUC @10 uM >6)
- EC50 [2]: 100 nM
- Emax [2]: 296%

SMILES: C[C@@H](OCc1ccccc1)[C@H](NC(=O)c1ccc2ccccc2c1OCc1ccc(Cl)c(Cl)c1)C(=O)O (stereo in doubt) [Example 206]
- TECC24 AUC fold over DMSO @10 μM [1]: C (“C” refers to AUC @10 uM <4)
- Emax [2]: 4.7%

SMILES: O=C(N[C@@H](Cc1ccccc1)C(=O)O)c1ccc2ccccc2c1OCc1ccc(Cl)c(Cl)c1 [Example 99, (1-((3,4-dichlorobenzyl)oxy)-2-naphthoyl)-L-phenylalanine]
- TECC24 AUC fold over DMSO @10 μM [1]: C (“C” refers to AUC @10 uM <4)
- EC50 [2]: 5700 nM
- Emax [2]: 83.1%

SMILES: CC(C)(SCC1CC1(F)F)[C@H](NC(=O)c1ccc2cc(F)ccc2c1OCc1ccc(SC(F)(F)F)cc1)C(=O)O (stereo partly drawn) [Example 167, (2R)-3-(((2,2-difluorocyclopropyl)methyl)thio)-2-(6-fluoro-1-((4-((trifluoromethyl)thio)benzyl)oxy)-2-naphthamido)-3-methylbutanoic Acid]
- TECC24 AUC fold over DMSO @10 μM [1]: C (“C” refers to AUC @10 uM <4)
- EC50 [2]: 1200 nM
- Emax [2]: 63.5%

SMILES: O=C(N[C@H](C(=O)O)C1CCCC1)c1ccc2cc(F)ccc2c1OCc1ccc(C(F)(F)F)cc1 [Example 153, (S)-2-cyclopentyl-2-(6-fluoro-1-((4-(trifluoromethyl)benzyl)oxy)-2-naphthamido)acetic Acid]
- TECC24 AUC fold over DMSO @10 μM [1]: B (“B” refers to AUC @10 uM between 4-6)
- EC50 [2]: 1500 nM
- Emax [2]: 73.5%

SMILES: CC(C)(C)[C@H](NC(=O)c1ccc2ccccc2c1OC[C@H]1CC[C@H](C(F)(F)F)CC1)C(=O)O [Example 222, (2S)-3,3-dimethyl-2-[[1-[[4-(trifluoromethyl)cyclohexyl]methoxy]naphthalene-2-carbonyl]amino]butanoic Acid]
- TECC24 AUC fold over DMSO @10 μM [1]: A (“A” refers to AUC @10 uM >6)
- EC50 [2]: 2900 nM
- Emax [2]: 154%

SMILES: O=C(N[C@H](C(=O)O)C1CCCC1)c1ccc2ccccc2c1OCC1CCC(F)(F)CC1 [Example 155, (S)-2-cyclopentyl-2-(1-((4,4-difluorocyclohexyl)methoxy)-2-naphthamido)acetic Acid]
- TECC24 AUC fold over DMSO @10 μM [1]: C (“C” refers to AUC @10 uM <4)
- EC50 [2]: 4100 nM
- Emax [2]: 60.7%

SMILES: CC(C)(C)[C@H](NC(=O)c1ccc2ccc(Cl)cc2c1OCc1ccc(C(F)(F)F)cc1)C(=O)O [Example 286, (S)-2-(7-chloro-1-((4-(trifluoromethyl)benzyl)oxy)-2-naphthamido)-3,3-dimethylbutanoic Acid]
- TECC24 AUC fold over DMSO @10 μM [1]: A (“A” refers to AUC @10 uM >6)
- EC50 [2]: 100 nM
- Emax [2]: 353%

SMILES: CC(C)(C)C[C@H](NC(=O)c1ccc2cc(F)ccc2c1OCc1nc2ccccc2s1)C(=O)O [Example 218, (S)-2-(1-(benzo[d]thiazol-2-ylmethoxy)-6-fluoro-2-naphthamido)-4,4-dimethylpentanoic Acid]
- TECC24 AUC fold over DMSO @10 μM [1]: C (“C” refers to AUC @10 uM <4)
- EC50 [2]: 4800 nM
- Emax [2]: 86.8%

SMILES: O=C(N[C@H](C(=O)O)C(c1ccccc1)c1ccccc1)c1ccc2ccccc2c1OCc1ccc(C(F)(F)F)c(F)c1 [Example 130, (S)-2-(1-((3-fluoro-4-(trifluoromethyl)benzyl)oxy)-2-naphthamido)-3,3-diphenylpropanoic Acid]
- TECC24 AUC fold over DMSO @10 μM [1]: C (“C” refers to AUC @10 uM <4)
- EC50 [2]: 200 nM
- Emax [2]: 196%

SMILES: CC(C)(C)C[C@H](NC(=O)c1ccc2cc(F)ccc2c1OCC1CCCCC1)C(=O)O [Example 205, (S)-2-(1-(cyclohexylmethoxy)-6-fluoro-2-naphthamido)-4,4-dimethylpentanoic Acid]
- TECC24 AUC fold over DMSO @10 μM [1]: C (“C” refers to AUC @10 uM <4)
- EC50 [2]: 4800 nM
- Emax [2]: 92.2%

SMILES: O=C(N[C@@H](Cc1ccco1)C(=O)O)c1ccc2ccccc2c1OCc1ccc(C(F)(F)F)cc1 [Example 136, (S)-3-(furan-2-yl)-2-(1-((4-(trifluoromethyl)benzyl)oxy)-2-naphthamido)propanoic Acid]
- TECC24 AUC fold over DMSO @10 μM [1]: C (“C” refers to AUC @10 uM <4)
- EC50 [2]: 8100 nM
- Emax [2]: 73.6%

SMILES: CCC(C)(C)[C@H](NC(=O)c1ccc2c(F)cccc2c1OCc1ccc(OC(F)(F)F)cc1)C(=O)O [Example 226, (2S)-2-[[5-fluoro-1-[[4-(trifluoromethoxy)phenyl]methoxy]naphthalene-2-carbonyl]amino]-3,3-dimethyl-pentanoic Acid]
- TECC24 AUC fold over DMSO @10 μM [1]: B (“B” refers to AUC @10 uM between 4-6)
- EC50 [2]: 400 nM
- Emax [2]: 139%

SMILES: O=C(N[C@H](C(=O)O)C1CCCC1)c1ccc2cc(F)ccc2c1OCc1ccc(OC(F)(F)F)cc1 [Example 119, (S)-2-cyclopentyl-2-(6-fluoro-1-((4-(trifluoromethoxy)benzyl)oxy)-2-naphthamido)acetic Acid]
- TECC24 AUC fold over DMSO @10 μM [1]: A (“A” refers to AUC @10 uM >6)
- EC50 [2]: 800 nM
- Emax [2]: 37.1%

SMILES: O=C(N[C@@H](Cc1ccc(C(F)(F)F)cc1)C(=O)O)c1ccc2ccccc2c1OCc1ccc(C(F)(F)F)cc1 [Example 104, (S)-2-(1-((4-(trifluoromethyl)benzyl)oxy)-2-naphthamido)-3-(4-(trifluoromethyl)phenyl)propanoic Acid]
- TECC24 AUC fold over DMSO @10 μM [1]: C (“C” refers to AUC @10 uM <4)
- EC50 [2]: 7700 nM
- Emax [2]: 77.8%

SMILES: Cc1ccc2ccc(C(=O)N[C@H](C(=O)O)C(C)(C)C)c(OCc3ccc(OC(F)(F)F)cc3)c2c1 [Example 249, (2S)-3,3-dimethyl-2-[[7-methyl-1-[[4-(trifluoromethoxy)phenyl]methoxy]naphthalene-2-carbonyl]amino]butanoic Acid]
- TECC24 AUC fold over DMSO @10 μM [1]: A (“A” refers to AUC @10 uM >6)
- EC50 [2]: 200 nM
- Emax [2]: 305%

SMILES: CCCC(C)(C)[C@H](NC(=O)c1ccc2ccc(Cl)cc2c1OCc1ccc(C(F)(F)F)cc1)C(=O)O [Example 306, (S)-2-(7-chloro-1-((4-(trifluoromethyl)benzyl)oxy)-2-naphthamido)-3,3-dimethylhexanoic Acid]
- TECC24 AUC fold over DMSO @10 μM [1]: A (“A” refers to AUC @10 uM >6)
- EC50 [2]: 100 nM
- Emax [2]: 417%

SMILES: CCC1([C@H](NC(=O)c2ccc3ccc(Cl)cc3c2OCc2ccc(OC(F)(F)F)cc2)C(=O)O)CCCC1 [Example 253, (2S)-2-[[7-chloro-1-[[4-(trifluoromethoxy)phenyl]methoxy]naphthalene-2-carbonyl]amino]-2-(1-ethylcyclopentyl)acetic Acid]
- TECC24 AUC fold over DMSO @10 μM [1]: A (“A” refers to AUC @10 uM >6)
- Emax [2]: 239%

SMILES: O=C(N[C@@H](Cc1ccccc1)C(=O)O)c1ccc2ccccc2c1OCCc1ccc(C(F)(F)F)cc1 [Example 97, (1-(4-(trifluoromethyl)phenethoxy)-2-naphthoyl)-L-phenylalanine]
- TECC24 AUC fold over DMSO @10 μM [1]: C (“C” refers to AUC @10 uM <4)
- Emax [2]: 1.1%

SMILES: C#CC(C)(C)C(NC(=O)c1ccc2ccccc2c1OCc1ccc(OC(F)(F)F)cc1)C(=O)O (stereo not drawn) [Example 234, 3,3-dimethyl-2-[[1-[[4-(trifluoromethoxy)phenyl]methoxy]naphthalene-2-carbonyl]amino]pent-4-ynoic Acid]
- TECC24 AUC fold over DMSO @10 μM [1]: A (“A” refers to AUC @10 uM >6)
- EC50 [2]: 1300 nM
- Emax [2]: 140%

SMILES: CCC(C)(C)C(NC(=O)c1ccc2ccc(C)cc2c1OCc1ccc(OC(F)(F)F)cc1)C(=O)O (stereo not drawn) [Example 276, 3,3-dimethyl-2-(7-methyl-1-((4-(trifluoromethoxy)benzyl)oxy)-2-naphthamido)pentanoic Acid]
- TECC24 AUC fold over DMSO @10 μM [1]: A (“A” refers to AUC @10 uM >6)
- EC50 [2]: 300 nM
- Emax [2]: 309%

SMILES: CC(C)(C)[C@H](NC(=O)c1ccc2ccccc2c1OCc1ccc(SC(F)(F)F)cc1)C(=O)O [Example 35, (S)-3,3-dimethyl-2-(1-((4-((trifluoromethyl)thio)benzyl)oxy)-2-naphthamido)butanoic Acid]
- TECC24 AUC fold over DMSO @10 μM [1]: A (“A” refers to AUC @10 uM >6)
- EC50 [2]: 600 nM
- Emax [2]: 86.4%

SMILES: O=C(N[C@@H](Cc1c(Cl)cccc1Cl)C(=O)O)c1ccc2ccccc2c1OCc1ccc(C(F)(F)F)cc1 [Example 152, (S)-3-(2,6-dichlorophenyl)-2-(1-((4-(trifluoromethyl)benzyl)oxy)-2-naphthamido)propanoic Acid]
- TECC24 AUC fold over DMSO @10 μM [1]: C (“C” refers to AUC @10 uM <4)
- EC50 [2]: 7200 nM
- Emax [2]: 122%

SMILES: CC(C)(C)[C@H](NC(=O)c1ccc2ccccc2c1OCc1ccc(S(=O)(=O)C(F)(F)F)cc1)C(=O)O [Example 57, (S)-3,3-dimethyl-2-(1-((4-((trifluoromethyl)sulfonyl)benzyl)oxy)-2-naphthamido)butanoic Acid]
- TECC24 AUC fold over DMSO @10 μM [1]: C (“C” refers to AUC @10 uM <4)
- EC50 [2]: 1500 nM
- Emax [2]: 87.9%
